Experiment in all cases: L-DOPA oxidation assay in MM418C1 cell lysate, single dose […] ([…] activity remaining)
Common to all, as to conditions: read-out: % activity remaining at 1 mg/mL

For assay [1], the target named is T1, human tyrosinase (hsTYR) (Homo sapiens, UniProt P14679).
T1 construct: gene TYR
T1 sequence (P14679 19-529): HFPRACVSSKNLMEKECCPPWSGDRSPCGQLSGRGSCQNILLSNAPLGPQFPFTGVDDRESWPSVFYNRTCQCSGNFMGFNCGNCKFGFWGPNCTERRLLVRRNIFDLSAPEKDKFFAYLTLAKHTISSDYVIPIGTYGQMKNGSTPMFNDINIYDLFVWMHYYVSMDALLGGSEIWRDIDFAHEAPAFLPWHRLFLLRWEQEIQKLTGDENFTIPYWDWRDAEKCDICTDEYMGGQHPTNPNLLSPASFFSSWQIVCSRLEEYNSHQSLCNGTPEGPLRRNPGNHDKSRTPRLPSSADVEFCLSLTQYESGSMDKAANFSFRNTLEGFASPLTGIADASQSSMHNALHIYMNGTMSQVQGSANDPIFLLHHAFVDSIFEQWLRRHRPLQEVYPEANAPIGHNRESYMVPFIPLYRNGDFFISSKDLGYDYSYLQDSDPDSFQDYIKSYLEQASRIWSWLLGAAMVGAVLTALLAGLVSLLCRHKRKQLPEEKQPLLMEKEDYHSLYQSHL
The assay is classed as cell-free (cell lysate).

The target in assay [2] is T1, human tyrosinase (hsTYR). The class given is cell-free.
For assay [3], the target named is T1, human tyrosinase (hsTYR). The assay is classed as biochemical.

Where two headings read alike, the source gives them in different places.

As for `O=C(/C=C/c1ccc(O)c(O)c1)O[C@@H]1C[C@](O)(C(=O)O)C[C@@H](O)[C@H]1O` [compound 7, 5-caffeoylquinic acid], the remaining activity at 1000 µg/mL in assay [1] is 68.1%.
With `CC1(C)C(CO[C@@H]2O[C@H](CO)[C@@H](O)[C@H](O)[C@H]2O)=CC(=O)C2=C1SCC(=O)N2` [compound 9, xanthiside], the remaining activity at 1000 µg/mL in assay [2] worked out at 76.9%.
Regarding `O=C(/C=C/c1ccc(O)c(O)c1)O[C@@H]1CC(OC(=O)/C=C/c2ccc(O)c(O)c2)(C(=O)O)C[C@@H](O)C1O` (stereo partly drawn) [compound 11, 1,3-dicaffeoylquinic acid], the remaining activity at 1000 µg/mL in assay [3] amounted to 78.1%.

The record behind these values is publication PMC12473028, “Isolation and Biological Evaluation of Human Tyrosinase Inhibitors from the Fruit of Xanthium strumarium L” (Molecules, 2025).
